Source: the supplement of paper PMC10307832

Tests used:
Assay in all cases: relative viability (nuclei count vs DMSO), 5 days (fraction); higher = more cells survive
NCI-H1793 = tested on: NCI-H1793
In short: (§1)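 Five library-drug doses in √10 steps were combined with a fixed anchor-drug dose, or a single drug was given alone, by pin tool to lung cancer cell lines in 1536-well plates the day after seeding. Nuclei were stained and counted after 5 days. Relative viability is the nuclei count in treated wells over that in vehicle wells, taken as the median of duplicate plates.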

NCI-H1395 = tested on: NCI-H1395
In short: as §1

NCI-H1755 = tested on: NCI-H1755
In short: as §1

COR-L23 = tested on: COR-L23
In short: as §1

COR-L 105 = tested on: COR-L 105
In short: as §1

NCI-H650 = tested on: NCI-H650
In short: as §1

HCC-15 = tested on: HCC-15
In short: as §1

NCI-H2009 = tested on: NCI-H2009
In short: as §1

HCC-366 = tested on: HCC-366
In short: as §1

PC-14 = tested on: PC-14
In short: as §1

NCI-H23 = tested on: NCI-H23
In short: as §1

NCI-H1915 = tested on: NCI-H1915
In short: as §1

NCI-H358 = tested on: NCI-H358
In short: as §1

NCI-H2342 = tested on: NCI-H2342
In short: as §1

EMC-BAC-2 = tested on: EMC-BAC-2
In short: as §1

201T = tested on: 201T
In short: as §1

NCI-H2347 = tested on: NCI-H2347
In short: as §1

NCI-H1437 = tested on: NCI-H1437
In short: as §1

NCI-H2023 = tested on: NCI-H2023
In short: as §1

LC-2-ad = tested on: LC-2-ad
In short: as §1

SK-MES-1 = tested on: SK-MES-1
In short: as §1

SMILES: CCNC(=O)c1noc(-c2cc(C(C)C)c(O)cc2O)c1-c1ccc(CN2CCOCC2)cc1 [Luminespib] + COc1cc2c(Oc3ccc(NC(=O)C4(C(=O)Nc5ccc(F)cc5)CC4)cc3F)ccnc2cc1OCCCN1CCOCC1 [Foretinib] (partner 0.25 µM)
- relative viability (NCI-H1793; first compound 0.002 µM): 0.739
- relative viability (NCI-H1793; first compound 0.006325 µM): 0.892
- relative viability (NCI-H1793; first compound 0.02 µM): 0.472
- relative viability (NCI-H1793; first compound 0.06325 µM): 0.551
- relative viability (NCI-H1793; first compound 0.2 µM): 0.189
- relative viability (NCI-H1395; first compound 0.002 µM): 1.04
- relative viability (NCI-H1395; first compound 0.006325 µM): 0.941
- relative viability (NCI-H1395; first compound 0.02 µM): 0.805
- relative viability (NCI-H1395; first compound 0.06325 µM): 0.568
- relative viability (NCI-H1395; first compound 0.2 µM): 0.345
- relative viability (NCI-H1755; first compound 0.002 µM): 0.874
- relative viability (NCI-H1755; first compound 0.006325 µM): 0.946
- relative viability (NCI-H1755; first compound 0.02 µM): 0.948
- relative viability (NCI-H1755; first compound 0.06325 µM): 0.555
- relative viability (NCI-H1755; first compound 0.2 µM): 0.305
- relative viability (COR-L23; first compound 0.002 µM): 1.06
- relative viability (COR-L23; first compound 0.006325 µM): 0.894
- relative viability (COR-L23; first compound 0.02 µM): 1.12
- relative viability (COR-L23; first compound 0.06325 µM): 0.124
- relative viability (COR-L23; first compound 0.2 µM): 0.105
- relative viability (COR-L 105; first compound 0.002 µM): 0.885
- relative viability (COR-L 105; first compound 0.006325 µM): 1.04
- relative viability (COR-L 105; first compound 0.02 µM): 1.07
- relative viability (COR-L 105; first compound 0.06325 µM): 0.436
- relative viability (COR-L 105; first compound 0.2 µM): 0.273
- relative viability (NCI-H650; first compound 0.002 µM): 1.09
- relative viability (NCI-H650; first compound 0.006325 µM): 0.974
- relative viability (NCI-H650; first compound 0.02 µM): 0.782
- relative viability (NCI-H650; first compound 0.06325 µM): 0.811
- relative viability (NCI-H650; first compound 0.2 µM): 0.149
- relative viability (HCC-15; first compound 0.002 µM): 1.09
- relative viability (HCC-15; first compound 0.006325 µM): 0.971
- relative viability (HCC-15; first compound 0.02 µM): 1.07
- relative viability (HCC-15; first compound 0.06325 µM): 0.151
- relative viability (HCC-15; first compound 0.2 µM): 0.126
- relative viability (NCI-H2009; first compound 0.002 µM): 1.22
- relative viability (NCI-H2009; first compound 0.006325 µM): 1.16
- relative viability (NCI-H2009; first compound 0.02 µM): 1.33
- relative viability (NCI-H2009; first compound 0.06325 µM): 0.298
- relative viability (NCI-H2009; first compound 0.2 µM): 0.0898
- relative viability (HCC-366; first compound 0.002 µM): 0.925
- relative viability (HCC-366; first compound 0.006325 µM): 0.921
- relative viability (HCC-366; first compound 0.02 µM): 0.921
- relative viability (HCC-366; first compound 0.06325 µM): 0.887
- relative viability (HCC-366; first compound 0.2 µM): 0.199
- relative viability (PC-14; first compound 0.002 µM): 0.967
- relative viability (PC-14; first compound 0.006325 µM): 0.882
- relative viability (PC-14; first compound 0.02 µM): 0.945
- relative viability (PC-14; first compound 0.06325 µM): 0.567
- relative viability (PC-14; first compound 0.2 µM): 0.125
- relative viability (NCI-H23; first compound 0.002 µM): 1.26
- relative viability (NCI-H23; first compound 0.006325 µM): 1.03
- relative viability (NCI-H23; first compound 0.02 µM): 0.858
- relative viability (NCI-H23; first compound 0.06325 µM): 0.971
- relative viability (NCI-H23; first compound 0.2 µM): 0.591
- relative viability (NCI-H1915; first compound 0.002 µM): 1.13
- relative viability (NCI-H1915; first compound 0.006325 µM): 1.04
- relative viability (NCI-H1915; first compound 0.02 µM): 1.02
- relative viability (NCI-H1915; first compound 0.06325 µM): 1.05
- relative viability (NCI-H1915; first compound 0.2 µM): 0.826
- relative viability (NCI-H358; first compound 0.002 µM): 0.69
- relative viability (NCI-H358; first compound 0.006325 µM): 0.705
- relative viability (NCI-H358; first compound 0.02 µM): 0.631
- relative viability (NCI-H358; first compound 0.06325 µM): 0.06
- relative viability (NCI-H358; first compound 0.2 µM): 0.0569
- relative viability (NCI-H2342; first compound 0.002 µM): 1.02
- relative viability (NCI-H2342; first compound 0.006325 µM): 0.991
- relative viability (NCI-H2342; first compound 0.02 µM): 0.656
- relative viability (NCI-H2342; first compound 0.06325 µM): 0.786
- relative viability (NCI-H2342; first compound 0.2 µM): 0.543
- relative viability (EMC-BAC-2; first compound 0.002 µM): 1.03
- relative viability (EMC-BAC-2; first compound 0.006325 µM): 0.936
- relative viability (EMC-BAC-2; first compound 0.02 µM): 0.942
- relative viability (EMC-BAC-2; first compound 0.06325 µM): 0.915
- relative viability (EMC-BAC-2; first compound 0.2 µM): 0.56
- relative viability (201T; first compound 0.002 µM): 1.06
- relative viability (201T; first compound 0.006325 µM): 1.07
- relative viability (201T; first compound 0.02 µM): 1.08
- relative viability (201T; first compound 0.06325 µM): 0.173
- relative viability (201T; first compound 0.2 µM): 0.159
- relative viability (NCI-H2347; first compound 0.002 µM): 0.987
- relative viability (NCI-H2347; first compound 0.006325 µM): 0.64
- relative viability (NCI-H2347; first compound 0.02 µM): 0.59
- relative viability (NCI-H2347; first compound 0.06325 µM): 0.922
- relative viability (NCI-H2347; first compound 0.2 µM): 0.376
- relative viability (NCI-H1437; first compound 0.002 µM): 1.3
- relative viability (NCI-H1437; first compound 0.006325 µM): 1.2
- relative viability (NCI-H1437; first compound 0.02 µM): 1.33
- relative viability (NCI-H1437; first compound 0.06325 µM): 1.24
- relative viability (NCI-H1437; first compound 0.2 µM): 0.526
- relative viability (NCI-H2023; first compound 0.002 µM): 0.739
- relative viability (NCI-H2023; first compound 0.006325 µM): 0.884
- relative viability (NCI-H2023; first compound 0.02 µM): 0.438
- relative viability (NCI-H2023; first compound 0.06325 µM): 0.123
- relative viability (NCI-H2023; first compound 0.2 µM): 0.0586
- relative viability (LC-2-ad; first compound 0.002 µM): 1.02
- relative viability (LC-2-ad; first compound 0.006325 µM): 0.928
- relative viability (LC-2-ad; first compound 0.02 µM): 0.834
- relative viability (LC-2-ad; first compound 0.06325 µM): 0.321
- relative viability (LC-2-ad; first compound 0.2 µM): 0.25
- relative viability (SK-MES-1; first compound 0.002 µM): 0.829
- relative viability (SK-MES-1; first compound 0.006325 µM): 0.804
- relative viability (SK-MES-1; first compound 0.02 µM): 0.777
- relative viability (SK-MES-1; first compound 0.06325 µM): 0.138
- relative viability (SK-MES-1; first compound 0.2 µM): 0.156
